Legend:
Format in all cases: in vivo
[1] = tested on: barnyardgrass (Echinochloa crus-galli); experiment: Test A greenhouse herbicide test, pre- and postemergence
In short: (§1)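 Seeds in loam–sand blend received a preemergence directed soil spray; plants at 2–10 cm, one- to two-leaf stage, received postemergence sprays. Compounds in a non-phytotoxic solvent with surfactant. After about 10 d in a greenhouse, injury rated visually versus untreated controls on a 0–100 scale (100 = complete control).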

corn (Zea mays) = experiment: as above; details: Postemergence; for Plant response rating, Corn: 125 g ai/ha, 0 to 100 scale where 0 is no effect and 100 is complete control; for Corn plant response rating: 500 g ai/ha, 0 to 100 scale, 0 is no effect, 100 is complete control
In short: as §1

[2] = tested on: foxtail, giant (giant foxtail, Setaria faberii); experiment: as above
In short: as §1

kochia (Kochia scoparia) = experiment: as above
In short: as §1

[3] = tested on: pigweed (Amaranthus retroflexus); experiment: as above
In short: as §1

[4] = tested on: ragweed (common ragweed, Ambrosia elatior); experiment: as above
In short: as §1

[5] = tested on: ryegrass, Italian (Italian ryegrass, Lolium multiflorum); experiment: as above
In short: as §1

[6] = tested on: wheat (Triticum aestivum); experiment: as above; details: Postemergence; for Plant response rating, Wheat: 125 g ai/ha, 0 to 100 scale where 0 is no effect and 100 is complete control; for Wheat plant response rating: 500 g ai/ha, 0 to 100 scale, 0 is no effect, 100 is complete control
In short: as §1

[7] = tested on: johnsongrass (Sorghum halepense); experiment: Test C greenhouse herbicide test, pre- and postemergence
Text: (§2) Seeds of plant species selected from blackgrass (Alopecurus myosuroides), ryegrass, Italian (Italian ryegrass, Lolium multiflorum), wheat (winter wheat, Triticum aestivum), galium (catchweed bedstraw, Galium aparine), corn (Zea mays), large crabgrass, large (large crabgrass, Digitaria sanguinalis), foxtail, giant (giant foxtail, Setaria faberii), johnsongrass (Sorghum halepense), lambsquarters (Chenopodium album), morningglory (Ipomoea coccinea), nutsedge, yellow (yellow nutsedge, Cyperus esculentus), pigweed (Amaranthus retroflexus), ragweed (common ragweed, Ambrosia elatior), soybean (Glycine max), barnyardgrass (Echinochloa crus-galli), oilseed rape (Brassica napus), waterhemp (common waterhemp, Amaranthus rudis), and velvetleaf (Abutilon theophrasti) were planted into a blend of loam soil and sand and treated preemergence with test chemicals formulated in a non-phytotoxic solvent mixture which included a surfactant.
(§3) At the same time, plants selected from these crop and weed species and also chickweed (common chickweed, Stellaria media), kochia (Kochia scoparia), and oat, wild (wild oat, Avena fatua), were planted in pots containing Redi-Earth® planting medium (Scotts Company, 14111 Scottslawn Road, Marysville, Ohio 43041) comprising spaghnum peat moss, vermiculite, wetting agent and starter nutrients and treated with postemergence applications of test chemicals formulated in the same manner. Plants ranged in height from 2 to 18 cm (1- to 4-leaf stage) for postemergence treatments. Treated plants and controls were maintained in a greenhouse for 13 to 15 d, after which time all species were compared to controls and visually evaluated. Plant response ratings, summarized in Table C, are based on a scale of 0 to 100 where 0 is no effect and 100 is complete control. A dash (-) response means no test result.

[8] = tested on: waterhemp (common waterhemp, Amaranthus rudis); experiment: as above
Text: as §2, §3

[9] = Postemergence, 125 g ai/ha, 0 to 100 scale where 0 is no effect and 100 is complete control
[10] = Postemergence, 500 g ai/ha, 0 to 100 scale, 0 is no effect, 100 is complete control
[11] = Preemergence, 125 g ai/ha, 0 to 100 scale where 0 is no effect and 100 is complete control
[12] = Preemergence, 500 g ai/ha, 0 to 100 scale, 0 no effect, 100 complete control
[13] = Preemergence, 500 g ai/ha, 0 to 100 scale where 0 is no effect and 100 is complete control
[14] = Postemergence, 31 g ai/ha, 0 to 100 scale (0 no effect, 100 complete control)
[15] = Postemergence, 125 g ai/ha, scale 0 to 100, 0 is no effect, 100 is complete control
[16] = Postemergence, 250 g ai/ha, scale 0 to 100, 0 no effect, 100 complete control, 13 to 15 d
[17] = Preemergence, 31 g ai/ha, scale 0 to 100, 0 is no effect, 100 is complete control
[18] = Preemergence, 62 g ai/ha, scale 0 to 100, 0 is no effect, 100 is complete control
[19] = Preemergence, 125 g ai/ha, scale 0 to 100, 0 is no effect, 100 is complete control
[20] = Preemergence, 250 g ai/ha, scale 0 to 100, 0 no effect, 100 complete control
[21] = postemergence, 62 g ai/ha, scale 0 to 100, 0 no effect, 100 complete control

Compound: Cc1ccc2sc(Br)c(-c3c(O)c(C)nn(C)c3=O)c2c1 [Compound 79]
- Plant response rating, Barnyardgrass [1, 9]: 50
- Barnyardgrass plant response rating [1, 10]: 80
- Barnyardgrass plant response rating [1, 11]: 50
- Plant response rating, Barnyardgrass [1, 12]: 70
- Plant response rating, Corn (corn (Zea mays)): 0
- Corn plant response rating (corn (Zea mays)): 0
- Plant response rating, Foxtail, Giant [2, 9]: 70
- Foxtail, Giant plant response rating [2, 10]: 80
- Foxtail, Giant plant response rating [2, 11]: 90
- Plant response rating, Foxtail, Giant [2, 13]: 90
- Plant response rating, Kochia (kochia (Kochia scoparia); [9]): 80
- Kochia plant response rating (kochia (Kochia scoparia); [10]): 90
- Kochia plant response rating (kochia (Kochia scoparia); [11]): 70
- Plant response rating, Kochia (kochia (Kochia scoparia); [13]): 90
- Plant response rating, Pigweed [3, 9]: 90
- Pigweed plant response rating [3, 10]: 90
- Pigweed plant response rating [3, 11]: 100
- Plant response rating, Pigweed [3, 13]: 100
- Plant response rating, Ragweed [4, 9]: 90
- Ragweed plant response rating [4, 10]: 90
- Ragweed plant response rating [4, 11]: 80
- Plant response rating, Ragweed [4, 13]: 80
- Plant response rating, Ryegrass, Italian [5, 9]: 80
- Ryegrass, Italian plant response rating [5, 10]: 90
- Ryegrass, Italian plant response rating [5, 11]: 80
- Plant response rating, Ryegrass, Italian [5, 13]: 100
- Plant response rating, Wheat [6]: 0
- Wheat plant response rating [6]: 0
- Johnsongrass plant response rating [7, 14]: 5
- Plant response rating, Johnsongrass [7, 15]: 10
- Plant response rating, Johnsongrass [7, 16]: 10
- Plant response rating, Johnsongrass [7, 17]: 10
- Plant response rating, Johnsongrass [7, 18]: 35
- Plant response rating, Johnsongrass [7, 19]: 40
- Johnsongrass plant response rating [7, 20]: 30
- Johnsongrass plant response rating [7, 21]: 5
- Waterhemp plant response rating [8, 14]: 85
- Plant response rating, Waterhemp [8, 15]: 80
- Plant response rating, Waterhemp [8, 16]: 95
- Plant response rating, Waterhemp [8, 17]: 100
- Plant response rating, Waterhemp [8, 18]: 100
- Plant response rating, Waterhemp [8, 19]: 100
- Waterhemp plant response rating [8, 20]: 100
- Waterhemp plant response rating [8, 21]: 90

Compound: COC(=O)Oc1c(C)nn(C)c(=O)c1-c1c(C)sc2ccc(C)cc12 [Compound 80]
- Plant response rating, Barnyardgrass [1, 9]: 70
- Barnyardgrass plant response rating [1, 10]: 80
- Barnyardgrass plant response rating [1, 11]: 70
- Plant response rating, Barnyardgrass [1, 12]: 90
- Plant response rating, Corn (corn (Zea mays)): 0
- Corn plant response rating (corn (Zea mays)): 0
- Plant response rating, Foxtail, Giant [2, 9]: 80
- Foxtail, Giant plant response rating [2, 10]: 80
- Foxtail, Giant plant response rating [2, 11]: 80
- Plant response rating, Foxtail, Giant [2, 13]: 90
- Plant response rating, Kochia (kochia (Kochia scoparia); [9]): 90
- Kochia plant response rating (kochia (Kochia scoparia); [10]): 90
- Kochia plant response rating (kochia (Kochia scoparia); [11]): 90
- Plant response rating, Kochia (kochia (Kochia scoparia); [13]): 90
- Plant response rating, Pigweed [3, 9]: 90
- Pigweed plant response rating [3, 10]: 90
- Pigweed plant response rating [3, 11]: 90
- Plant response rating, Pigweed [3, 13]: 100
- Plant response rating, Ragweed [4, 9]: 80
- Ragweed plant response rating [4, 10]: 90
- Ragweed plant response rating [4, 11]: 80
- Plant response rating, Ragweed [4, 13]: 90
- Plant response rating, Ryegrass, Italian [5, 9]: 80
- Ryegrass, Italian plant response rating [5, 10]: 90
- Ryegrass, Italian plant response rating [5, 11]: 90
- Plant response rating, Ryegrass, Italian [5, 13]: 100
- Plant response rating, Wheat [6]: 0
- Wheat plant response rating [6]: 0
- Johnsongrass plant response rating [7, 14]: 5
- Plant response rating, Johnsongrass [7, 15]: 5
- Plant response rating, Johnsongrass [7, 16]: 15
- Plant response rating, Johnsongrass [7, 17]: 5
- Plant response rating, Johnsongrass [7, 18]: 5
- Plant response rating, Johnsongrass [7, 19]: 30
- Johnsongrass plant response rating [7, 20]: 35
- Johnsongrass plant response rating [7, 21]: 5
- Waterhemp plant response rating [8, 14]: 85
- Plant response rating, Waterhemp [8, 15]: 85
- Plant response rating, Waterhemp [8, 16]: 95
- Plant response rating, Waterhemp [8, 17]: 100
- Plant response rating, Waterhemp [8, 18]: 100
- Plant response rating, Waterhemp [8, 19]: 100
- Waterhemp plant response rating [8, 20]: 100
- Waterhemp plant response rating [8, 21]: 80

Reference: US10597388B2, “Pyridazinone herbicides” (FMC CORPORATION, priority 2014, dated 2020)
